The source of these data is patent US20110159479A1, “GENETIC POLYMORPHISMS IN THE CYTOCHROME P450 GENE WITH CLOPIDOGREL RESISTANCE” (Industry-University Cooperation Foundation Yonsei University, priority 2009, published 2011).

Assay [1] in a line: VerifyNow P2Y12 platelet-function assay in CAD patients with drug-eluting stents on clopidogrel. In kind it is in vivo, human. The source says: (§1) From October 2006 to July 2007, 450 consecutive patients who underwent successful percutaneous coronary intervention (PCI) with drug-eluting stents (DES) were randomly assigned to treatment with dual anti-platelet regimens (aspirin plus clopidogrel, n=225) or triple antiplatelet regimens (aspirin plus clopidogrel plus cilostazol, n=225). Inclusion criteria were: symptomatic coronary artery disease (CAD) or documented myocardial ischemia (by treadmill exercise testing or sestamibi scan); angiographic evidence of 50% diameter stenosis and post procedure Thromobolysis In Myocardial Infarction (TIMI) flow grade 3. Exclusion criteria were: contraindication to antiplatelet agents; previous allergy or intolerance of aspirin or clopidogrel; treatment with warfarin; active bleeding; known platelet dysfunction; abnormal platelet count (<100,000/mm^3). Patients received a 300 mg loading dose of clopidogrel at least 12 hours before the stenting. Stents were deployed according to standard techniques. The maintenance dose for each antiplatelet agent was 100 mg once a day for aspirin, 75 mg once a day for clopidogrel, and 100 mg twice a day for cilostazol. Among the enrolled patients, 387 patients were analyzed for clopidogrel resistance by VerifyNow P2Y12 system (Accumetrics, San Diego, Calif.), and blood sampling for genetic analysis.
(§2) The VerifyNow P2Y12 system is a rapid platelet-function, cartridge based assay designed to directly measure the effects of clopidogrel on the P2Y12 receptor. Results are expressed as P2Y12 reaction units (PRUs) and percentage inhibition. PRU reports the amount of P2Y12 receptor mediated aggregation.
(§3) Values were expressed as mean±SD. Chi-square test for goodness of fit was used to verify agreement with Hardy-Weinberg equilibrium (HWE) using Fisher's exact test. Comparison of discrete variables was performed using the Chi-square test analysis or Fisher's exact test. Comparison of continuous variables between the two study groups was performed using the Student's t-test. Multivariate logistic regression analysis was performed to determine the independent association of CYP gene polymorphisms with clopidogrel resistance. Odds ratios (ORs) were calculated with 95% confidence intervals (CIs) for the relative risk of clopidogrel resistance related to genotypes. Statistical analysis was performed with SPSS 15.0 (SPSS Inc, Chicago, Ill.). All values of P<0.05 were considered statistically significant.

The next assay deals with T1, P2Y12 receptor (Homo sapiens, UniProt Q9H244).
T1 construct: PRU reports the amount of P2Y12 receptor mediated aggregation; from tissue; host or cells: platelets in blood of patients (VerifyNow P2Y12 system, Accumetrics)
T1 sequence (Q9H244 whole entry): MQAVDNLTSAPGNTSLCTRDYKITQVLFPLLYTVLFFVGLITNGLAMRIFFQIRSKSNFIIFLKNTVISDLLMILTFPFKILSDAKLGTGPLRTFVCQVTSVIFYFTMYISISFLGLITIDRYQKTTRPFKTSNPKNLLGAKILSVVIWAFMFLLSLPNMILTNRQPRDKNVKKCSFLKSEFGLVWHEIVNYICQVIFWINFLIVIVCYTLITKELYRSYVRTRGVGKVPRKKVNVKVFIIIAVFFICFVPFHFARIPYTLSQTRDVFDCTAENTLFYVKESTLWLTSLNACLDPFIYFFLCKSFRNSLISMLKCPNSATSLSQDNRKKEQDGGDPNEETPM
Described as above. The settings on record: for % inhibition of platelet activity: mean ± SD; for Rate of clopidogrel resistance: subjects with CYP2C19*3 A allele. In kind it is in vivo.
From the text: as §1, §2, §3

For assay [2] the following is noted: patients following coronary stenting; previous reports; cited from earlier work.

Each structure is given as a SMILES string.

As to `O=C1CCc2cc(OCCCCc3nnnn3C3CCCCC3)ccc2N1` [Cilostazol], the results for the “Patients on cilostazol, number (percentage of group)” value in assay [1] (clopidogrel resistant group (Resistance)) and in assay [1] (clopidogrel responsive group (No resistance)) were 32 (28.6%) and 158 (57.5%), respectively.
Regarding `COC(=O)[C@H](c1ccccc1Cl)N1CCc2sccc2C1` [clopidogrel, (+)-(S)-methyl 2-(2-chlorophenyl)-2-(6,7-dihydrothieno[3,2-c]pyridin-5(4H)-yl)acetate], the “Clopidogrel resistance (percent inhibition <20%), proportion of patients” value on P2Y12 receptor (387 CAD patients with DES insertion, 112 patients) came out at 28.9%. Also, the “% inhibition of platelet activity” value was 32.5 ± 22.3% at P2Y12 receptor (CYP1A1 rs1048943, codominant, genotype AA (211)); 37.7 ± 24.2% on P2Y12 receptor (CYP1A1 rs1048943, codominant, genotype AG (153)); 38.7 ± 24.4% at P2Y12 receptor (CYP1A1 rs1048943, codominant, genotype GG (20)); 32.5 ± 22.3% on P2Y12 receptor (CYP1A1 rs1048943, dominant, genotype AA (210)); 37.8 ± 24.2% on P2Y12 receptor (CYP1A1 rs1048943, dominant, genotype AG/GG (170)); 34.7 ± 23.2% on P2Y12 receptor (CYP1A1 rs1048943, recessive, genotype AA/AG (361)). Also, the “% inhibition of platelet activity” value amounted to 38.7 ± 24.4% at P2Y12 receptor (CYP1A1 rs1048943, recessive, genotype GG (19)); 30.9 ± 21.7% on P2Y12 receptor (CYP2C19*2 rs4244285, codominant, genotype AA (39)); 32.5 ± 21.6% at P2Y12 receptor (CYP2C19*2 rs4244285, codominant, genotype GA (133)); 37.2 ± 24.5% on P2Y12 receptor (CYP2C19*2 rs4244285, codominant, genotype GG (210)); 32.1 ± 21.6% on P2Y12 receptor (CYP2C19*2 rs4244285, dominant, genotype GA/AA (172)); 37.2 ± 24.5% at P2Y12 receptor (CYP2C19*2 rs4244285, dominant, genotype GG (210)). Moreover, the “% inhibition of platelet activity” value is on record as 30.9 ± 21.7% at P2Y12 receptor (CYP2C19*2 rs4244285, recessive, genotype AA (39)); 35.3 ± 23.5% at P2Y12 receptor (CYP2C19*2 rs4244285, recessive, genotype GG/GA (343)); 17.0 ± 24.0% at P2Y12 receptor (CYP2C19*3 rs4986893, codominant, genotype AA (2)); 24.9 ± 20.1% at P2Y12 receptor (CYP2C19*3 rs4986893, codominant, genotype GA (68)); 36.9 ± 23.4% at P2Y12 receptor (CYP2C19*3 rs4986893, codominant, genotype GG (316)); 24.6 ± 20.0% at P2Y12 receptor (CYP2C19*3 rs4986893, dominant, genotype GA/AA (70)). Besides, the “% inhibition of platelet activity” value on P2Y12 receptor (CYP2C19*3 rs4986893, dominant, genotype GG (316)) is reported as 36.9 ± 23.4%; on P2Y12 receptor (CYP2C19*3 rs4986893, recessive, genotype AA (2)), 17.0 ± 24.0%; on P2Y12 receptor (CYP2C19*3 rs4986893, recessive, genotype GG/GA (384)), 34.8 ± 23.3%. In addition, the “Rate of clopidogrel resistance” value on P2Y12 receptor (dual regimen therapy (aspirin plus clopidogrel)) came out at 57.6%; at P2Y12 receptor (triple regimen therapy (aspirin plus clopidogrel plus cilostazol)) it was 37.1%. For the same molecule, the “Prevalence of clopidogrel nonresponsiveness” value in assay [2] is recorded as 5-44%.
